# Measured values as given in patent publication US20230030886A1, “CHEMOTHERAPEUTIC DRUG IMPLANT” (EXTRUDED PHARMACEUTICALS LTD, priority 2019, published 2023).
# Test system: primary GBM cells taken from eight patients with recurrent GBM
# Assay: GBM cell cytotoxicity of IRN, TMZ and IRN+PVT, increasing concentrations, 5 days (MTT)
# Type: cell-based, human
# Method: TMZ, IRN and IRN+PVT were added at increasing concentrations up to 5 log nm to cultured primary GBM cells taken from eight patients with recurrent GBM. After 5 days of exposure an MTT assay was performed to assess % cell viability.
smiles,measurement,setting,value
"CCc1c2c(nc3ccc(OC(=O)N4CCC(N5CCCCC5)CC4)cc13)-c1cc3c(c(=O)n1C2)COC(=O)[C@]3(O)CC [IRN, irinotecan]",IC50,"Homo sapiens, 120 h, determined from FIG. 23, 5 days exposure, eight patient lines",3.16 µM
same,response of the eight patient cell lines to treatment,"up to 5 log nm, 5 days of exposure",Six of the eight patient cell lines responded
